Reference: US11464802B2, “3-substituted piperidine compounds for Cbl-b inhibition, and use thereof” (Nurix Therapeutics, Inc., priority 2019, dated 2022)
Like-named read-outs stand apart in the source and are kept apart here.

Columns and labels:
[1] = target: Cbl-b (Homo sapiens (Human), UniProt Q13191); assay: Cbl-b displacement assay (Cbl-b inhibition assay), TR-FRET probe displacement, Biological Example 1; assay type: binding
Description: Candidate compounds were evaluated for their ability to bind and inhibit Cbl-b, an E3 ubiquitin-protein ligase, as evidenced by their ability to displace a fluorophore-labeled probe (Example 46) bound to Cbl-b.
The ability of candidate compounds to displace a known inhibitor and thereby inhibit Cbl-b activity was measured by monitoring the interaction of Cbl-b with a fluorophore-labeled probe in the presence of the candidate compound. A truncated variant of Cbl-b (UniProt number Q13191; SEQ ID NO:1) containing an Avitag at its N-terminus was co-expressed with BirA biotin ligase and purified using a standard protocol (see Dou et al., Nature Structural and Molecular Biology 8: 982-987, 2013; Avidity LLC).
Fluorescently-labeled inhibitor probe was synthesized and tagged with BODIPY FL (Example 46). Cbl-b displacement assays were performed in a 384-well plate at room temperature in a 10 μL reaction volume by pre-incubating 0.5 nM Cbl-b or 0.125 nM Cbl-b (final concentration, indicated as “High” and “Low”, respectively) in an assay buffer containing 20 mM HEPES pH 7.5, 150 mM NaCl, 0.01% Triton X-100, 0.01% BSA, and 0.5 mM TCEP in the presence of a candidate compound in 1% DMSO (final concentration) for 1 hour. After incubation in the presence of the candidate compound, the plate was incubated for an additional 1 hour in the presence of an approximate EC40 binding saturation consisting of 150 nM fluorescently-labeled inhibitor probe and 2 nM Streptavidin-Terbium (Cisbio) (final concentrations). Following the 1 hour incubation, the plates were read for TR-FRET signal at 520/620 nM using an Envision plate reader (Perkin Elmer).

[2] = system: primary human total T-cells; assay: Primary human total T-cell activation: IL-2 secretion, Biological Example 2; assay type: cell-based; details: 48 hours, fold change over baseline; for fold induction at 0.3 µM: inhibitor 0.3 μM; for fold induction at 1 µM: inhibitor 1 μM; for fold induction at 3 µM: inhibitor 3 μM
[3] = system: primary human total T-cells; assay: Primary human total T-cell activation: CD25 surface staining, Biological Example 2; assay type: cell-based; details: 48 hours, fold change over baseline; for fold induction at 0.3 µM: inhibitor 0.3 μM; for fold induction at 1 µM: inhibitor 1 μM; for fold induction at 3 µM: inhibitor 3 μM
[4] = 0.125 nM Cbl-b final concentration (Low), read-out: Cbl-b activity IC50 (Low)
[5] = anti-CD3/anti-CD28 co-stimulation
[6] = anti-CD3/anti-CD28 co-stimulation, read-out: IL-2 secretion CD3/CD28 1 μM
[7] = anti-CD3 alone, read-out: IL-2 secretion CD3 1 μM
[8] = anti-CD3/anti-CD28 co-stimulation, read-out: CD25 staining CD3/CD28 1 μM
[9] = anti-CD3 alone, read-out: CD25 staining CD3 1 μM
[10] = 0.5 nM Cbl-b final concentration (High), read-out: Cbl-b activity IC50 (High)
[11] = Cbl-b concentration (High or Low) not given, read-out: IC50 values in the Cbl-b inhibition assay of Biological Example 1

Cbl-b, sequence (Q13191 36-427): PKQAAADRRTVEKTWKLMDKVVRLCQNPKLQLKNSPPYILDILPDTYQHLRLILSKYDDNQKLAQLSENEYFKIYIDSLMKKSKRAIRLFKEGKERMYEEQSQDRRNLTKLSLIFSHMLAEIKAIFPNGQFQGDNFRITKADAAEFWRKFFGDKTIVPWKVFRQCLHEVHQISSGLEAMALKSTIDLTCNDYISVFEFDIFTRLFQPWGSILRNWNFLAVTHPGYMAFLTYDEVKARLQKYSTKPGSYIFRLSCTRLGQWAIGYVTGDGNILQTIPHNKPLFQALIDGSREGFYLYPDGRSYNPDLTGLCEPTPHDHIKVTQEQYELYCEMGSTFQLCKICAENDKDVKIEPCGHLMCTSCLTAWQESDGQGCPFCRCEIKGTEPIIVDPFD

| Structure (SMILES) | IC50 [1, 4] | IC50 [1, 10] | IC50 [1, 11] | fold induction at 0.3 µM [2, 5] | fold induction at 1 µM [2, 6] | fold induction at 1 µM [2, 7] | fold induction at 3 µM ([2]; anti-CD3 alone) | fold induction at 0.3 µM [3, 5] | fold induction at 1 µM [3, 8] | fold induction at 1 µM [3, 9] | fold induction at 3 µM ([3]; anti-CD3 alone) |
| --- | --- | --- | --- | --- | --- | --- | --- | --- | --- | --- | --- |
| Cn1cnnc1CC1(c2cccc(N3Cc4c(cc(CN5CCCC6(COC6)C5)cc4C(F)(F)F)C3=O)c2)COC1 [Compound 12, 6-((2-oxa-6-azaspiro[3.5]nonan-6-yl)methyl)-2-(3-(3-((4-methyl-4H-1,2,4-triazol-3-yl)methyl)oxetan-3-yl)phenyl)-4-(trifluoromethyl)isoindolin-1-one] | – | 5.1 to 100 nM | 5.1 to 100 nM | < 10 | 11 to 15 | < 0.33 | < 0.33 | 1.25 to 1.39 | 1.25 to 1.39 | < 1.04 | 1.05 to 1.14 |
| C[C@H]1CCCN(Cc2cc3c(c(C(F)(F)F)c2)CN(c2cc(C4(Cc5nncn5C)COC4)cc(Cl)n2)C3=O)C1 [Compound 47, 2-(6-chloro-4-{3-[(4-methyl-1,2,4-triazol-3-yl)methyl]oxetan-3-yl}pyridin-2-yl)-6-{[(3S)-3-methylpiperidin-1-yl]methyl}-4-(trifluoromethyl)-3H-isoindol-1-one] | 5.1 to 100 nM | – | 5.1 to 100 nM | > 15 | > 15 | > 0.66 | > 0.66 | > 1.39 | > 1.39 | > 1.14 | > 1.14 |
| Cn1cnnc1CC1(c2cccc(N3Cc4c(cc(CN5CCC(F)(F)[C@H](CO)C5)cc4C(F)(F)F)C3=O)c2)COC1 [Compound 15, (S)-6-((4,4-difluoro-3-(hydroxymethyl)piperidin-1-yl)methyl)-2-(3-(3-((4-methyl-4H-1,2,4-triazol-3-yl)methyl)oxetan-3-yl)phenyl)-4-(trifluoromethyl)isoindolin-1-one] | – | 1 to 5 nM | – | < 10 | 11 to 15 | < 0.33 | 0.34 to 0.66 | < 1.24 | < 1.24 | 1.05 to 1.14 | 1.05 to 1.14 |
| C[C@@H]1CN(Cc2cc3c(c(C(F)(F)F)c2)CN(c2cccc(C4(Cc5nncn5C(F)F)COC4)c2)C3=O)CCC1(F)F [Compound 31, (R)-6-((4,4-difluoro-3-methylpiperidin-1-yl)methyl)-2-(3-(3-((4-(difluoromethyl)-4H-1,2,4-triazol-3-yl)methyl)oxetan-3-yl)phenyl)-4-(trifluoromethyl)isoindolin-1-one] | 1 to 5 nM | – | 1 to 5 nM | > 15 | > 15 | > 0.66 | > 0.66 | > 1.39 | > 1.39 | < 1.04 | < 1.04 |
| Cn1cnnc1CC1(c2cccc(N3Cc4c(cc(CN5CC(C(F)(F)F)C[C@H](C(F)(F)F)C5)cc4C(F)(F)F)C3=O)c2)COC1 (stereo partly drawn) [Compound 21, cis-6-{[3,5-bis(trifluoromethyl)piperidin-1-yl]methyl}-2-(3-{3-[(4-methyl-1,2,4-triazol-3-yl)methyl]oxetan-3-yl}phenyl)-4-(trifluoromethyl)-3H-isoindol-1-one] | 5.1 to 100 nM | – | 5.1 to 100 nM | < 10 | < 10 | < 0.33 | < 0.33 | 1.25 to 1.39 | 1.25 to 1.39 | < 1.04 | < 1.04 |
| C[C@H]1CN(Cc2cc(C(=O)Nc3cccc(C4(Cc5nncn5C)COC4)c3)nc(C3CC3)c2)CCC1(F)F [Compound 33, 6-cyclopropyl-4-{[(3S)-4,4-difluoro-3-methylpiperidin-1-yl]methyl}-N-(3-{3-[(4-methyl-1,2,4-triazol-3-yl)methyl]oxetan-3-yl}phenyl)pyridine-2-carboxamide] | – | 1 to 5 nM | – | 11 to 15 | 11 to 15 | < 0.33 | 0.34 to 0.66 | < 1.24 | < 1.24 | 1.05 to 1.14 | 1.05 to 1.14 |

More lines, main results first:

| IC50 [1, 4] | IC50 [1, 10] | IC50 [1, 11] | Structure (SMILES) | fold induction at 0.3 µM [2, 5] | fold induction at 1 µM [2, 6] | fold induction at 1 µM [2, 7] | fold induction at 3 µM ([2]; anti-CD3 alone) | fold induction at 0.3 µM [3, 5] | fold induction at 1 µM [3, 8] | fold induction at 1 µM [3, 9] | fold induction at 3 µM ([3]; anti-CD3 alone) |
| --- | --- | --- | --- | --- | --- | --- | --- | --- | --- | --- | --- |
| 1 to 5 nM | – | – | C[C@H]1CCCN(Cc2cc3c(c(C(F)(F)F)c2)CN(c2cccc(C4(Cc5nncn5C)COC4)c2)C3=O)[C@H]1C (relative stereo) [Compound 19, 6-((cis-2,3-dimethylpiperidin-1-yl)methyl)-2-(3-(3-((4-methyl-4H-1,2,4-triazol-3-yl)methyl)oxetan-3-yl)phenyl)-4-(trifluoromethyl)isoindolin-1-one] | < 10 | 11 to 15 | < 0.33 | 0.34 to 0.66 | 1.25 to 1.39 | 1.25 to 1.39 | 1.05 to 1.14 | 1.05 to 1.14 |
| 1 to 5 nM | – | – | CCOc1cc(C2(Cc3nncn3C)COC2)cc(N2Cc3c(cc(CN4CCC(F)(F)[C@H](C)C4)nc3C3CC3)C2=O)n1 [Compound 41, 4-cyclopropyl-6-{[(3R)-4,4-difluoro-3-methylpiperidin-1-yl]methyl}-2-(6-ethoxy-4-{3-[(4-methyl-1,2,4-triazol-3-yl)methyl]oxetan-3-yl}pyridin-2-yl)-3H-pyrrolo[3,4-c]pyridin-1-one] | > 15 | > 15 | > 0.66 | > 0.66 | > 1.39 | > 1.39 | > 1.14 | > 1.14 |
| 1 to 5 nM | – | – | CCNc1cc(C2(Cc3nncn3C)COC2)cc(N2Cc3c(cc(CN4CCC(F)(F)[C@H](C)C4)nc3C3CC3)C2=O)n1 [Compound 42, (R)-4-cyclopropyl-6-((4,4-difluoro-3-methylpiperidin-1-yl)methyl)-2-(6-(ethylamino)-4-(3-((4-methyl-4H-1,2,4-triazol-3-yl)methyl)oxetan-3-yl)pyridin-2-yl)-2,3-dihydro-1H-pyrrolo[3,4-c]pyridin-1-one] | > 15 | > 15 | > 0.66 | > 0.66 | > 1.39 | > 1.39 | > 1.14 | > 1.14 |
| 1 to 5 nM | – | – | Cn1cnnc1CC1(c2cccc(N3Cc4c(cc(CN5CCC[C@H](C#N)C5)cc4C(F)(F)F)C3=O)c2)COC1 [Compound 18, (S)-1-((2-(3-(3-((4-methyl-4H-1,2,4-triazol-3-yl)methyl)oxetan-3-yl)phenyl)-3-oxo-7-(trifluoromethyl)isoindolin-5-yl)methyl)piperidine-3-carbonitrile] | < 10 | 11 to 15 | < 0.33 | 0.34 to 0.66 | 1.25 to 1.39 | 1.25 to 1.39 | > 1.14 | > 1.14 |
| 1 to 5 nM | – | 1 to 5 nM | C[C@H]1CCCN([C@H](C)c2cc3c(c(C4CC4)n2)CN(c2cccc(C4(Cc5nncn5C)COC4)c2)C3=O)C1 [Compound 52, 4-cyclopropyl-2-(3-(3-((4-methyl-4H-1,2,4-triazol-3-yl)methyl)oxetan-3-yl)phenyl)-6-((R)-1-((S)-3-methylpiperidin-1-yl)ethyl)-2,3-dihydro-1H-pyrrolo[3,4-c]pyridin-1-one] | > 15 | > 15 | > 0.66 | > 0.66 | > 1.39 | > 1.39 | > 1.14 | > 1.14 |
| < 1 nM | – | < 1 nM | C[C@H]1C[C@H](CO)CN(Cc2cc3c(c(C(F)(F)F)c2)CN(c2cccc(C4(Cc5nncn5C)COC4)c2)C3=O)C1 (relative stereo) [Compound 22, trans-6-{[3-(hydroxymethyl)-5-methylpiperidin-1-yl]methyl}-2-(3-{3-[(4-methyl-1,2,4-triazol-3-yl)methyl]oxetan-3-yl}phenyl)-4-(trifluoromethyl)-3H-isoindol-1-one] | > 15 | > 15 | > 0.66 | > 0.66 | > 1.39 | > 1.39 | < 1.04 | < 1.04 |
